Reference: patent US20240299322A1, “TREATING CANCERS WITH COMBINATIONS OF PARP INHIBITOR AND ACYLFULVENES” (LANTERN PHARMA INC., priority 2022, published 2024)
Where two headings read alike, the source gives them in different places.

Legend:
Type in all cases: cell-based
[1] = test system: BRCA2 mutant ovarian tumor cell line PEO1; test: Cell sensitivity analysis on PEO1 cell line, single and combination treatment, Isobole plot
Method: Cell sensitivity analysis was performed to evaluate the synergistic effect of LP-184 and Olaparib on PEO1 cell line, which is an established BRCA2 mutant ovarian tumor cell line. Cells were seeded onto 96-well plate and were continuously exposed to drug treatment for 8.5 days. IC50 data were obtained from Olaparib, LP-184 single treatment and combination treatment.
Cell sensitivity analysis was performed to evaluate the synergistic effect of LP-184 and Talazoparib on PEO1 cell line. Experiments were done as described above. […] Furthermore, the synergistic effect of Talazoparib and LP-184 co-treatment was analyzed by using an Isobole plot (FIG. 4D).

OVCAR3 (Ovarian) = test: Bliss synergy score (MacSynergy II), LP-100 and PARP inhibitor, OVCAR3; details: combination with LP-100, score >10 indicates synergy
Method: (§1) This program allows the three-dimensional examination of drug interactions of all data points generated from the checkerboard combination of two inhibitors with Bliss-Independence model (not shown). Confidence bounds are determined from replicate data. […] The volumes of synergy or antagonism can be determined and graphically depicted in three dimensions and represent the relative quantity of synergism or antagonism per change in the two drug concentrations. Synergy and antagonism volumes are based on the Bliss independence model, which assumes that both compounds act independently on different targets. A set of predicted fractional responses faAB under the Bliss independence model is calculated as […] faB with faA and faB representing the fraction of possible responses, e.g. percent (%) inhibition, of compounds A and B at amounts dA and dB, respectively, and describes the percent inhibition of a combination of compounds A and B at amount (dA+dB).

22RV1 (Prostate) = test: Bliss synergy score (MacSynergy II), LP-100 and PARP inhibitor, 22RV1; details: combination with LP-100, score >10 indicates synergy
Method: as §1

[2] = Homo sapiens, PEO1, 204 h, PEO1, 8.5 days, Olaparib and LP-184 together, FIG. 3C, read-out: IC50 of Olaparib and LP-184 co-treatment (concentration of each drug giving 50% cell growth inhibition together)
[3] = Homo sapiens, PEO1, PEO1, Example 4, FIGS. 4A, 4B, read-out: IC50 single treatment
[4] = Homo sapiens, PEO1, PEO1, Talazoparib and LP-184 together, FIG. 4C, read-out: IC50 of Talazoparib and LP-184 co-treatment (concentration of each drug giving 50% cell growth inhibition together)
[5] = PEO1, Olaparib and LP-184 co-treatment, Example 3
[6] = PEO1, Talazoparib and LP-184 co-treatment, Example 4

| SMILES | IC50 [1, 2] | IC50 [1, 3] | IC50 [1, 4] | fold less in co-treatment compared to single drug treatment [1, 5] | fold less in co-treatment compared to single drug treatment [1, 6] | Bliss Synergy Score between LP-100 and PARP inhibitor (OVCAR3 (Ovarian)) | further results |
| --- | --- | --- | --- | --- | --- | --- | --- |
| CC1=C(CN(O)C(N)=O)C2=C(C)C3(CC3)[C@@](C)(O)C(=O)C2=C1 [LP-184, (−)-hydroxyureamethyl acylfulvene] | 13.9 nM | 87.4 nM | 7.2 nM | 7.77 fold | 12.14 fold | – | IC50 ([1]; Homo sapiens, PEO1, 204 h, PEO1, Example 4, FIGS. 4A, 4B, read-out: IC50 single treatment): 87.4 nM; IC50 ([1]; Homo sapiens, PEO1, 204 h, PEO1, continuous exposure 8.5 days, Example 3, FIGS. 3A, 3B, read-out: IC50 single treatment): 108 nM |
| NC(=O)c1cccc2cn(-c3ccc([C@@H]4CCCNC4)cc3)nc12 [Niraparib] | – | – | – | – | – | 10.34 | – |
| CNCc1ccc(-c2[nH]c3cc(F)cc4c3c2CCNC4=O)cc1 [Rucaparib, 8-Fluoro-2-{4-[(methylamino)methyl]phenyl}-1,3,4,5-tetrahydro-6H-azepino[-5,4,3-cd]indol-6-one] | – | – | – | – | – | 14.11 | Bliss Synergy Score between LP-100 and PARP inhibitor (22RV1 (Prostate)): 18.57 |
| O=C(c1cc(Cc2n[nH]c(=O)c3ccccc23)ccc1F)N1CCN(C(=O)C2CC2)CC1 [Olaparib, 4-[(3-[(4-cyclopropylcarbonyl)piperazin-4-yl]carbonyl)-4-fluorophenyl]met-hyl(2H)-phthalazin-1-one] | 279 nM | – | 3.6 nM | 4.48 fold | – | 12.19 | IC50 ([1]; PEO1, continuous exposure 8.5 days, Example 3, FIGS. 3A, 3B, read-out: IC50 single treatment): 1250 nM |
| Cn1ncnc1[C@H]1c2n[nH]c(=O)c3cc(F)cc(c23)N[C@@H]1c1ccc(F)cc1 [Talazoparib, (8S,9R)-5-fluoro-8-(4-fluorophenyl)-9-(1-methyl-1H-1,2,4-triazol-5-yl)-8,-9-dihydro-2H-pyrido[4,3,2de]phthalazin-3 (7H)-one] | – | 13.1 nM | – | – | 3.64 fold | – | – |
